Source: patent US20250230193A1, “CYCLIC COMPOUND HAVING SELECTIVE KRAS INHIBITORY EFFECT ON HRAS AND NRAS” (CHUGAI SEIYAKU KABUSHIKI KAISHA, priority 2022, published 2025)
Where a SMILES comes first, the peptide text is derived from it. Bridges are numbered along the chain shown (N, C = ends). [ ]: non-standard residue; d: D form. The star is where a group is joined. hPhe(3,5-F2-4-CF3) = N[C@@H](CCc1cc(F)c(C(F)(F)F)c(F)c1)C(=O)O; hPhe(3-Cl-4-CF3) = N[C@@H](CCc1ccc(C(F)(F)F)c(Cl)c1)C(=O)O; NPrPhe(4-CF3) = CCCN[C@@H](Cc1ccc(C(F)(F)F)cc1)C(=O)O; Pro(4-spirocPr) = O=C(O)[C@@H]1CC2(CC2)CN1; NMeGly(cPent) = CN[C@H](C(=O)O)C1CCCC1; Pro(4,4-F2) = O=C(O)[C@@H]1CC(F)(F)CN1; NMeD = CN[C@@H](CC(=O)O)C(=O)O; NMeL = CN[C@@H](CC(C)C)C(=O)O; αMeS = C[C@](N)(CO)C(=O)O; Morpholide = C1CN(*)CCO1; Ac5c = NC1(C(=O)O)CCCC1; Aze = O=C(O)[C@@H]1CCN1; Sar = CNCC(=O)O

Tests used:
[1] = molecular target: GDP-bound HRAS wild-type protein (Homo sapiens, UniProt P01112); experiment: Binding to HRAS by surface plasmon resonance (SPR), Single Cycle Kinetics
[2] = molecular target: GDP-bound NRAS wild-type protein (Homo sapiens, UniProt P01111); experiment: Binding to NRAS by surface plasmon resonance (SPR), Single Cycle Kinetics
[3] = SPR, GDP-bound wild-type proteins

Sequence of GDP-bound NRAS wild-type protein (P01111 whole entry): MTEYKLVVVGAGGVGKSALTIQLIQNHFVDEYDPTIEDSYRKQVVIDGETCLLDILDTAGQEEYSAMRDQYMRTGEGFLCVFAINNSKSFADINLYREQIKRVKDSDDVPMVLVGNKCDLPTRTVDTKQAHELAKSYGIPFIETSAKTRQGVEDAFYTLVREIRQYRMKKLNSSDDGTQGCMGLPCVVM
Sequence of GDP-bound HRAS wild-type protein (P01112 whole entry): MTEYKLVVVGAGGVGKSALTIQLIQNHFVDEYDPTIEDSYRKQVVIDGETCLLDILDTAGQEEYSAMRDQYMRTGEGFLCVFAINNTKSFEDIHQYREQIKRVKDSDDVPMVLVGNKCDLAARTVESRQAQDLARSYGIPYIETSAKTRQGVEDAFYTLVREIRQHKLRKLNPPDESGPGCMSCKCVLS

`CCC[C@H]1C(=O)N[C@@H]([C@@H](C)CC)C(=O)N(C)CC(=O)N(C)[C@H]2C/C=C\CCN(C2=O)[C@@H](Cc2ccc(C(F)(F)F)cc2)C(=O)N(C)CC(=O)N[C@@H](CCc2cc(F)c(C(F)(F)F)c(F)c2)C(=O)N2C[C@H](OCC)C[C@H]2C(=O)N(C)C2(CCC2)C(=O)N(C)[C@@H](C2CCCC2)C(=O)N(C)[C@H](C(=O)N2CCCCC2)CC(=O)N1C` [PP3118, (2S,8S,12R,14S,20S,23S,27S,30S,36S,38Z)-20-cyclopentyl-8-[2-[3,5-difluoro-4-(trifluoromethyl)phenyl]ethyl]-12-ethoxy-4,16,19,22,26,32,35-heptamethyl-30-[(1S)-1-methylpropyl]-23-(piperidine-1-carbonyl)-27-propyl-2-[[4-(trifluoromethyl)phenyl]methyl]spiro[1,4,7,10,16,19,22,26,29,32,35-undecazatricyclo[34.5.1.0^10,14]dotetracont-38-ene-17,1′-cyclobutane]-3,6,9,15,18,21,25,28,31,34,42-undecone] was tested, and the “HRAS/KRAS (ratio of KD value with respect to GDP-bound HRAS wild-type protein to KD value with respect to KRAS)” value [1, 3] was “B (a compound having 3 or more and less than 10 is denoted as B)” and the “NRAS/KRAS (ratio of KD value with respect to GDP-bound NRAS wild-type protein to KD value with respect to KRAS)” value [2, 3] was “A (a compound having 10 or more and less than 20 is denoted as A)”.

In the case of `CCCN1C(=O)CN(C)C(=O)[C@@H]2CCN2C(=O)[C@H]([C@@H](C)CC)NC(=O)[C@H](CC(C)C)N(C)C(=O)C[C@@H](C(=O)N(C)C)NC(=O)[C@H](C2CCCC2)N(C)C(=O)C2(CCCC2)NC(=O)[C@@H]2CC(F)(F)CN2C(=O)[C@H](CCc2ccc(C(F)(F)F)c(Cl)c2)NC(=O)CN(C)C(=O)[C@@H]1Cc1ccc(C(F)(F)F)cc1` [PP0375] ([NMeL]I[Aze][Sar][NPrPhe(4-CF3)][Sar][hPhe(3-Cl-4-CF3)][Pro(4,4-F2)][Ac5c][NMeGly(cPent)]D-NMe2; lactam N-11), the “HRAS/KRAS (ratio of KD for GDP-bound HRAS wild-type to KD for KRAS)” value ([1]; SPR) is reported as “B (a compound having 3 or more and less than 10 is denoted as B)” and the “NRAS/KRAS (ratio of KD for GDP-bound NRAS wild-type to KD for KRAS)” value ([2]; SPR) is reported as “B (a compound having 3 or more and less than 10 is denoted as B)”.

In the case of `CC[C@H](C)[C@@H]1NC(=O)[C@H](COC)N(C)C(=O)C[C@@H](C(=O)N(C)C)N(C)C(=O)[C@H](C2CCCC2)N(C)C(=O)C2(CC(C)(C)C2)NC(=O)[C@@H]2C[C@@H](OC3CCC3)CN2C(=O)[C@H](CCc2cc(F)c(C(F)(F)F)c(F)c2)NC(=O)CN(C)C(=O)[C@H](CC2CCC(F)(F)CC2)N2CC/C=C\C[C@@H](C2=O)N(C)C(=O)CN(C2CC2)C1=O` [PP2622], the “HRAS/KRAS (ratio of KD value with respect to GDP-bound HRAS wild-type protein to KD value with respect to KRAS)” value ([1]; class symbols) is reported as “B (a compound having 3 or more and less than 10 is denoted as B)” and the “NRAS/KRAS (ratio of KD value with respect to GDP-bound NRAS wild-type protein to KD value with respect to KRAS)” value ([2]; class symbols) is reported as “A (a compound having 10 or more and less than 20 is denoted as A)”.

In the case of `CC[C@H](C)[C@@H]1NC(=O)[C@H](CC)N(C)C(=O)C[C@@H](C(=O)N(C)C)N(CC)C(=O)[C@H](C2CCCC2)N(C)C(=O)C2(CCC2)NC(=O)[C@@H]2CCCN2C(=O)[C@H](CCc2cc(F)c(C(F)(F)F)c(F)c2)NC(=O)CN(C)C(=O)[C@H](Cc2ccc(C(F)(F)F)cc2)N2CC/C=C\C[C@@H](C2=O)N(C)C(=O)CN(C)C1=O` [PP1106], the “HRAS/KRAS (ratio of KD value with respect to HRAS to KD value with respect to KRAS)” value ([1]; KD ratio, GDP-bound HRAS wild-type vs GDP-bound KRAS wild-type, SPR) is reported as “A (a compound having 10 or more and less than 20 is denoted as A)” and the “NRAS/KRAS (ratio of KD value with respect to NRAS to KD value with respect to KRAS)” value ([2]; KD ratio, GDP-bound NRAS wild-type vs GDP-bound KRAS wild-type, SPR) is reported as “A (a compound having 10 or more and less than 20 is denoted as A)”.

`CCCN1C(=O)CN(C)C(=O)CN(C)C(=O)[C@H]([C@@H](C)CC)NC(=O)[C@H](CC(C)C)N(C)C(=O)C[C@@H](C(=O)N2CCOCC2)N(C)C(=O)[C@H](C2CCCC2)N(C)C(=O)C2(CCCC2)NC(=O)[C@@H]2CC3(CC3)CN2C(=O)[C@H](CCc2ccc(C(F)(F)F)c(Cl)c2)NC(=O)CN(C)C(=O)[C@@H]1Cc1ccc(C(F)(F)F)cc1` [PP0261] ([NMeL]I[Sar][Sar][NPrPhe(4-CF3)][Sar][hPhe(3-Cl-4-CF3)][Pro(4-spirocPr)][Ac5c][NMeGly(cPent)][NMeD]-Morpholide; lactam N-11) was tested, and the “HRAS/KRAS (ratio of KD for GDP-bound HRAS wild-type to KD for KRAS)” value ([1]; SPR) was “C (A compound having a KD ratio of 0.1 or more and less than 3 is denoted as C)” and the “NRAS/KRAS (ratio of KD for GDP-bound NRAS wild-type to KD for KRAS)” value ([2]; SPR) was “B (a compound having 3 or more and less than 10 is denoted as B)”.

For `CCCN1C(=O)CN(C)C(=O)[C@@H]2CCN2C(=O)[C@H]([C@@H](C)CC)NC(=O)[C@H](CC(C)C)N(C)C(=O)C[C@@H](C(=O)N2CCOCC2)N(C)C(=O)[C@H](C2CCCC2)N(C)C(=O)[C@](C)(COC)NC(=O)[C@@H]2CCCN2C(=O)[C@H](CCc2cc(F)c(C(F)(F)F)c(F)c2)NC(=O)CN(C)C(=O)[C@@H]1Cc1ccc(C(F)(F)F)cc1` [PP0779] ([NMeL]I[Aze][Sar][NPrPhe(4-CF3)][Sar][hPhe(3,5-F2-4-CF3)]P[αMeS](Me)[NMeGly(cPent)][NMeD]-Morpholide; lactam N-11), the “HRAS/KRAS (ratio of KD value with respect to GDP-bound HRAS wild-type protein to KD value with respect to KRAS)” value ([1]; SPR) was “B (a compound having 3 or more and less than 10 is denoted as B)” and the “NRAS/KRAS (ratio of KD value with respect to GDP-bound NRAS wild-type protein to KD value with respect to KRAS)” value ([2]; SPR) was “B (a compound having 3 or more and less than 10 is denoted as B)”.

In the case of `CCO[C@@H]1C[C@H]2C(=O)NC3(CCC3)C(=O)N(C)[C@@H](C3CCCC3)C(=O)N(CCc3ccccc3)[C@H](C(=O)N3CCOCC3)CC(=O)N(C)[C@@H](CC(C)C)C(=O)N[C@@H]([C@@H](C)CC)C(=O)N(C)CC(=O)N(C)[C@H]3CCCCCN(C3=O)[C@@H](Cc3ccc(C(F)(F)F)cc3)C(=O)N(C)CC(=O)N[C@@H](CCc3cc(F)c(C(F)(F)F)c(F)c3)C(=O)N2C1` [PP0642], the “HRAS/KRAS (ratio of KD value with respect to GDP-bound HRAS wild-type protein to KD value with respect to KRAS)” value ([1]; SPR) is reported as “B (a compound having 3 or more and less than 10 is denoted as B)” and the “NRAS/KRAS (ratio of KD value with respect to GDP-bound NRAS wild-type protein to KD value with respect to KRAS)” value ([2]; SPR) is reported as “B (a compound having 3 or more and less than 10 is denoted as B)”.

`CCCN1C(=O)CN(C)C(=O)[C@@H]2CCN2C(=O)[C@H]([C@@H](C)CC)NC(=O)[C@H](CC(C)C)N(C)C(=O)C[C@@H](C(=O)N2CCOCC2)NC(=O)[C@H](C2CCCC2)N(C)C(=O)C2(CCCC2)NC(=O)[C@@H]2CC(F)(F)CN2C(=O)[C@H](CCc2ccc(C(F)(F)F)c(Cl)c2)NC(=O)CN(C)C(=O)[C@@H]1Cc1ccc(C(F)(F)F)cc1` [PP0339] ([NMeL]I[Aze][Sar][NPrPhe(4-CF3)][Sar][hPhe(3-Cl-4-CF3)][Pro(4,4-F2)][Ac5c][NMeGly(cPent)]D-Morpholide; lactam N-11) was tested, and the “HRAS/KRAS (ratio of KD for GDP-bound HRAS wild-type to KD for KRAS)” value ([1]; SPR) was “B (a compound having 3 or more and less than 10 is denoted as B)” and the “NRAS/KRAS (ratio of KD for GDP-bound NRAS wild-type to KD for KRAS)” value ([2]; SPR) was “B (a compound having 3 or more and less than 10 is denoted as B)”.

`CCC(CC)[C@H]1C(=O)N(C)[C@H](C(=O)N(C)C)CC(=O)N(C)[C@@H](COC)C(=O)N[C@@H]([C@@H](C)CC)C(=O)N(C)CC(=O)N(C)[C@H]2C/C=C\CCN(C2=O)[C@@H](Cc2ccc(C)cc2)C(=O)N(C)CC(=O)N[C@@H](CCc2ccc(Cl)c(Cl)c2)C(=O)N2C[C@H](OC3CCC3)C[C@H]2C(=O)N(C)C2(CC(C)(C)C2)C(=O)N1C` [PP2816] was tested, and the “HRAS/KRAS (ratio of KD value with respect to GDP-bound HRAS wild-type protein to KD value with respect to KRAS)” value ([1]; class symbols) was “A (a compound having 10 or more and less than 20 is denoted as A)” and the “NRAS/KRAS (ratio of KD value with respect to GDP-bound NRAS wild-type protein to KD value with respect to KRAS)” value ([2]; class symbols) was “AA (a compound having 20 or more is denoted as AA)”.
